Results: patent publication US20230085307A1, “PYRIDAZINONE COMPOUND AND HERBICIDE” (NISSAN CHEMICAL CORPORATION, priority 2019, published 2023)

Experiments:
late watergrass = assay: Test Example 1: herbicidal activity, application before weed generation under submerged conditions (Table 16, symbol A); assay type: in vivo, late watergrass (Echinochloa oryzicola); conditions: 320 g/ha applied herbicide
In short: (§1)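 Submerged Wagner pots (alluvial soil, 4 cm water) sown with weed seeds and planted with 2.5-leaf rice seedlings; emulsifiable concentrate diluted in water applied to water surface on sowing day. Held in greenhouse at 25-30 °C; injury scored 0-5 by herbicidal rate after three weeks.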

Japanese bulrush = assay: Test Example 1: herbicidal activity, application before weed generation under submerged conditions (Table 16, symbol B); assay type: in vivo, Japanese bulrush (Schoenoplectus juncoides); conditions: 320 g/ha applied herbicide
In short: as §1

oval-leafed pondweed = assay: Test Example 1: herbicidal activity, application before weed generation under submerged conditions (Table 16, symbol C); assay type: in vivo, oval-leafed pondweed (Monochoria vaginalis); conditions: 320 g/ha applied herbicide
In short: as §1

barnyard grass [1] = assay: Test Example 3: herbicidal effect by foliage application, Wagner pot (Table 18, symbol H); assay type: in vivo, barnyard grass (Echinochloa crus-galli); conditions: amount of applied herbicide 320 g/ha
In short: (§2)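 Plants were sown in alluvial soil held under 0.1–0.5 cm standing water and grown 14 days in a greenhouse at 25–30 °C. An emulsifiable formulation, water-diluted to the set dose, was then sprayed onto the foliage, and effects were scored three weeks later using previously defined criteria.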

Chinese sprangletop = assay: Test Example 3: herbicidal effect by foliage application, Wagner pot (Table 18, symbol D); assay type: in vivo, chinese sprangletop (Leptochloa chinensis); conditions: amount of applied herbicide 320 g/ha
In short: as §2

rice flat sedge = assay: Test Example 3: herbicidal effect by foliage application, Wagner pot (Table 18, symbol E); assay type: in vivo, rice flat sedge (Cyperus iria); conditions: amount of applied herbicide 320 g/ha
In short: as §2

southern crabgrass [2] = assay: Test Example 4: herbicidal effect by soil treatment (Table 19, symbol F); assay type: in vivo, southern crabgrass (Digitaria ciliaris); conditions: amount of applied herbicide 320 g/ha
In short: (§3)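 In this soil treatment, the formulated compound reached the seeds only through the soil: seeds were buried about 1.5 cm deep in sterilized diluvial soil, then the diluted emulsion was sprayed over the surface. After three weeks at 25° C. to 30° C. in a greenhouse, effects were graded on criteria from an earlier test.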

green foxtail [3] = assay: Test Example 4: herbicidal effect by soil treatment (Table 19, symbol G); assay type: in vivo, green foxtail (Setaria viridis); conditions: amount of applied herbicide 320 g/ha
In short: as §3

barnyard grass [4] = assay: Test Example 4: herbicidal effect by soil treatment (Table 19, symbol H); assay type: in vivo, barnyard grass (Echinochloa crus-galli); conditions: amount of applied herbicide 320 g/ha
In short: as §3

wild oat [5] = assay: Test Example 4: herbicidal effect by soil treatment (Table 19, symbol I); assay type: in vivo, wild oat (Avena fatua); conditions: amount of applied herbicide 320 g/ha
In short: as §3

blackgrass [6] = assay: Test Example 4: herbicidal effect by soil treatment (Table 19, symbol J); assay type: in vivo, blackgrass (Alopecurus myosuroides); conditions: amount of applied herbicide 320 g/ha
In short: as §3

Italian ryegrass [7] = assay: Test Example 4: herbicidal effect by soil treatment (Table 19, symbol K); assay type: in vivo, Italian ryegrass (Lolium multiflorum); conditions: amount of applied herbicide 320 g/ha
In short: as §3

windgrass [8] = assay: Test Example 4: herbicidal effect by soil treatment (Table 19, symbol L); assay type: in vivo, windgrass (Apera spica-venti); conditions: amount of applied herbicide 320 g/ha
In short: as §3

velvetleaf [9] = assay: Test Example 4: herbicidal effect by soil treatment (Table 19, symbol M); assay type: in vivo, velvetleaf (Abutilon theophrasti); conditions: amount of applied herbicide 320 g/ha
In short: as §3

redroot pigweed [10] = assay: Test Example 4: herbicidal effect by soil treatment (Table 19, symbol N); assay type: in vivo, redroot pigweed (Amaranthus retroflexus); conditions: amount of applied herbicide 320 g/ha
In short: as §3

lambsquarters [11] = assay: Test Example 4: herbicidal effect by soil treatment (Table 19, symbol O); assay type: in vivo, lambsquarters (Chenopodium album); conditions: amount of applied herbicide 320 g/ha
In short: as §3

chickweed [12] = assay: Test Example 4: herbicidal effect by soil treatment (Table 19, symbol P); assay type: in vivo, common chickweed (Stellaria media); conditions: amount of applied herbicide 320 g/ha
In short: as §3

persian speedwell [13] = assay: Test Example 4: herbicidal effect by soil treatment (Table 19, symbol R); assay type: in vivo, Persian speedwell (Veronica persica); conditions: amount of applied herbicide 320 g/ha
In short: as §3

southern crabgrass [14] = assay: Test Example 5: herbicidal effect by foliage application, plastic box (Table 20, symbol F); assay type: in vivo, southern crabgrass (Digitaria ciliaris); conditions: foliage application, 320 g/ha, evaluated three weeks after application
In short: (§4)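 Plants were sown into sterilized diluvial soil under about 1.5 cm cover and kept in a greenhouse at 25° C. to 30° C. Fourteen days on, foliage received an even spray of the diluted emulsion. Herbicidal or crop effect was judged three weeks afterwards.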

green foxtail [15] = assay: Test Example 5: herbicidal effect by foliage application, plastic box (Table 20, symbol G); assay type: in vivo, green foxtail (Setaria viridis); conditions: foliage application, 320 g/ha, evaluated three weeks after application
In short: as §4

barnyard grass [16] = assay: Test Example 5: herbicidal effect by foliage application, plastic box (Table 20, symbol H); assay type: in vivo, barnyard grass (Echinochloa crus-galli); conditions: foliage application, 320 g/ha, evaluated three weeks after application
In short: as §4

wild oat [17] = assay: Test Example 5: herbicidal effect by foliage application, plastic box (Table 20, symbol I); assay type: in vivo, wild oat (Avena fatua); conditions: foliage application, 320 g/ha, evaluated three weeks after application
In short: as §4

blackgrass [18] = assay: Test Example 5: herbicidal effect by foliage application, plastic box (Table 20, symbol J); assay type: in vivo, blackgrass (Alopecurus myosuroides); conditions: foliage application, 320 g/ha, evaluated three weeks after application
In short: as §4

Italian ryegrass [19] = assay: Test Example 5: herbicidal effect by foliage application, plastic box (Table 20, symbol K); assay type: in vivo, Italian ryegrass (Lolium multiflorum); conditions: foliage application, 320 g/ha, evaluated three weeks after application
In short: as §4

windgrass [20] = assay: Test Example 5: herbicidal effect by foliage application, plastic box (Table 20, symbol L); assay type: in vivo, windgrass (Apera spica-venti); conditions: foliage application, 320 g/ha, evaluated three weeks after application
In short: as §4

velvetleaf [21] = assay: Test Example 5: herbicidal effect by foliage application, plastic box (Table 20, symbol M); assay type: in vivo, velvetleaf (Abutilon theophrasti); conditions: foliage application, 320 g/ha, evaluated three weeks after application
In short: as §4

redroot pigweed [22] = assay: Test Example 5: herbicidal effect by foliage application, plastic box (Table 20, symbol N); assay type: in vivo, redroot pigweed (Amaranthus retroflexus); conditions: foliage application, 320 g/ha, evaluated three weeks after application
In short: as §4

lambsquarters [23] = assay: Test Example 5: herbicidal effect by foliage application, plastic box (Table 20, symbol O); assay type: in vivo, lambsquarters (Chenopodium album); conditions: foliage application, 320 g/ha, evaluated three weeks after application
In short: as §4

chickweed [24] = assay: Test Example 5: herbicidal effect by foliage application, plastic box (Table 20, symbol P); assay type: in vivo, common chickweed (Stellaria media); conditions: foliage application, 320 g/ha, evaluated three weeks after application
In short: as §4

persian speedwell [25] = assay: Test Example 5: herbicidal effect by foliage application, plastic box (Table 20, symbol R); assay type: in vivo, Persian speedwell (Veronica persica); conditions: foliage application, 320 g/ha, evaluated three weeks after application
In short: as §4

SMILES: COc1ccccc1-c1sc2ccc(C#N)cc2c1-c1c(O)c(C)nn(C)c1=O [2-190]
- Herbicidal effect on A: late watergrass (grade 0-5) (late watergrass): 3 (Herbicidal rate of 40% or more and less than 70%)
- Herbicidal effect on B: Japanese bulrush (grade 0-5) (Japanese bulrush): 0 (Herbicidal rate of 5% or less (almost no effect))
- Herbicidal effect on C: oval-leafed pondweed (grade 0-5) (oval-leafed pondweed): 0 (Herbicidal rate of 5% or less (almost no effect))
- herbicidal effect on H: barnyard grass (barnyard grass [1]): 2 (Herbicidal rate of 20% or more and less than 40%)
- herbicidal effect on D: Chinese sprangletop (Chinese sprangletop): 2 (Herbicidal rate of 20% or more and less than 40%)
- herbicidal effect on E: rice flat sedge (rice flat sedge): 4 (Herbicidal rate of 70% or more and less than 90%)
- F: southern crabgrass, herbicidal effect rating (southern crabgrass [2]): 0 (Herbicidal rate of 5% or less (almost no effect))
- G: green foxtail, herbicidal effect rating (green foxtail [3]): 0 (Herbicidal rate of 5% or less (almost no effect))
- H: barnyard grass, herbicidal effect rating (barnyard grass [4]): 0 (Herbicidal rate of 5% or less (almost no effect))
- I: wild oat, herbicidal effect rating (wild oat [5]): 0 (Herbicidal rate of 5% or less (almost no effect))
- J: blackgrass, herbicidal effect rating (blackgrass [6]): 0 (Herbicidal rate of 5% or less (almost no effect))
- K: Italian ryegrass, herbicidal effect rating (Italian ryegrass [7]): 0 (Herbicidal rate of 5% or less (almost no effect))
- L: windgrass, herbicidal effect rating (windgrass [8]): 0 (Herbicidal rate of 5% or less (almost no effect))
- M: velvetleaf, herbicidal effect rating (velvetleaf [9]): 0 (Herbicidal rate of 5% or less (almost no effect))
- N: redroot pigweed, herbicidal effect rating (redroot pigweed [10]): 3 (Herbicidal rate of 40% or more and less than 70%)
- O: lambsquarters, herbicidal effect rating (lambsquarters [11]): 5 (Herbicidal rate of 90% or more (almost completely withered))
- P: chickweed, herbicidal effect rating (chickweed [12]): 0 (Herbicidal rate of 5% or less (almost no effect))
- R: persian speedwell, herbicidal effect rating (persian speedwell [13]): 0 (Herbicidal rate of 5% or less (almost no effect))
- herbicidal effect on F: southern crabgrass (criteria 0-5) (southern crabgrass [14]): 0 (Herbicidal rate of 5% or less (almost no effect))
- herbicidal effect on G: green foxtail (criteria 0-5) (green foxtail [15]): 0 (Herbicidal rate of 5% or less (almost no effect))
- herbicidal effect on H: barnyard grass (criteria 0-5) (barnyard grass [16]): 0 (Herbicidal rate of 5% or less (almost no effect))
- herbicidal effect on I: wild oat (criteria 0-5) (wild oat [17]): 0 (Herbicidal rate of 5% or less (almost no effect))
- herbicidal effect on J: blackgrass (criteria 0-5) (blackgrass [18]): 0 (Herbicidal rate of 5% or less (almost no effect))
- herbicidal effect on K: Italian ryegrass (criteria 0-5) (Italian ryegrass [19]): 0 (Herbicidal rate of 5% or less (almost no effect))
- herbicidal effect on L: windgrass (criteria 0-5) (windgrass [20]): 0 (Herbicidal rate of 5% or less (almost no effect))
- herbicidal effect on M: velvetleaf (criteria 0-5) (velvetleaf [21]): 3 (Herbicidal rate of 40% or more and less than 70%)
- herbicidal effect on N: redroot pigweed (criteria 0-5) (redroot pigweed [22]): 3 (Herbicidal rate of 40% or more and less than 70%)
- herbicidal effect on O: lambsquarters (criteria 0-5) (lambsquarters [23]): 2 (Herbicidal rate of 20% or more and less than 40%)
- herbicidal effect on P: chickweed (criteria 0-5) (chickweed [24]): 5 (Herbicidal rate of 90% or more (almost completely withered))
- herbicidal effect on R: persian speedwell (criteria 0-5) (persian speedwell [25]): 5 (Herbicidal rate of 90% or more (almost completely withered))
